Among the data in patent publication US20230139171A1 (SITA Information Networking Computing UK Limited, priority 2019, published 2023) are IC50 values, retold here.

Broadly, the IC50 is the midpoint of a concentration-inhibition curve.

Type in all cases: cell-based
The target of experiment [1] is T1, human TLR7 (Homo sapiens, UniProt Q9NYK1).
T1 construct: host or cells: HEK-Blue cells
T1 sequence (Q9NYK1 27-1049): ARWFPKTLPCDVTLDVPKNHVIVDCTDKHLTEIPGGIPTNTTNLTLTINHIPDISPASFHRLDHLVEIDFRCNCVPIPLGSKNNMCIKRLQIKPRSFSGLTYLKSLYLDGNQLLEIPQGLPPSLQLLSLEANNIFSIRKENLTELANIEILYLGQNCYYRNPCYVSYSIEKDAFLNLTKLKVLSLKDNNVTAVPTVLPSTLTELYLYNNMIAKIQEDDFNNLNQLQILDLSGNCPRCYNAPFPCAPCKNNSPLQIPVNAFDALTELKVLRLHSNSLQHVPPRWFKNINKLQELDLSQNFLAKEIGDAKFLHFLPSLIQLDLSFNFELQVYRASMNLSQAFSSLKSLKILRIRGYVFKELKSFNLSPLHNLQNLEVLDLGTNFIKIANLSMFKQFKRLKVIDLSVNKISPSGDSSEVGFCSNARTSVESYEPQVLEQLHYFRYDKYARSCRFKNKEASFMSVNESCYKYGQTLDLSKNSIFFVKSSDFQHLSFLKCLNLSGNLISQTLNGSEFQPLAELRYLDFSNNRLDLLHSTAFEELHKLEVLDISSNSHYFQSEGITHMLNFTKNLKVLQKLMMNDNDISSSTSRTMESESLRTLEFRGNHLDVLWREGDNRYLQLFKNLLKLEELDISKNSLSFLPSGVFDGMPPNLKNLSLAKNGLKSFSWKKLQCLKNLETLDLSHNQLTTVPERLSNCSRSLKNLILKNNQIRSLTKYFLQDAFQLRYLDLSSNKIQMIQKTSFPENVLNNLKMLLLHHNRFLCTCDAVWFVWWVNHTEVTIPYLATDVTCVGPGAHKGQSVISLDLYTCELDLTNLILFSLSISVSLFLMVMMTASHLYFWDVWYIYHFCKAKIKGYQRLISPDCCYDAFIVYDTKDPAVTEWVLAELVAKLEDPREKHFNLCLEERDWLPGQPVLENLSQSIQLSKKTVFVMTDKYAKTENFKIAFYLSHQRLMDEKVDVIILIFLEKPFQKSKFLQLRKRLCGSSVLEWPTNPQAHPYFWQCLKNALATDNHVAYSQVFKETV
The experiment is described as follows: TLR7 inhibition reporter assay (HEK-Blue cells, SEAP reporter, gardiquimod stimulation). Conditions: HEK-Blue cells overexpressing human TLR7, SEAP reporter, gardiquimod 7.5 μM; read-out: TLR7 IC50. An outline of the steps:
(§1)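 Compound treatment: 30 min, RT, 0.05 nM–50 μM final. Agonist: TLR7 gardiquimod 7.5 μM; TLR8 R848 15.9 μM; TLR9 ODN2006 5 nM. Incubation 22 h, 37 °C, 5% CO2. Readout SEAP, HEK-Blue Detection.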

For experiment [2], the target named is T2, human TLR8 (Homo sapiens, UniProt Q9NR97).
T2 construct: host or cells: HEK-Blue cells
T2 sequence (Q9NR97 27-1041): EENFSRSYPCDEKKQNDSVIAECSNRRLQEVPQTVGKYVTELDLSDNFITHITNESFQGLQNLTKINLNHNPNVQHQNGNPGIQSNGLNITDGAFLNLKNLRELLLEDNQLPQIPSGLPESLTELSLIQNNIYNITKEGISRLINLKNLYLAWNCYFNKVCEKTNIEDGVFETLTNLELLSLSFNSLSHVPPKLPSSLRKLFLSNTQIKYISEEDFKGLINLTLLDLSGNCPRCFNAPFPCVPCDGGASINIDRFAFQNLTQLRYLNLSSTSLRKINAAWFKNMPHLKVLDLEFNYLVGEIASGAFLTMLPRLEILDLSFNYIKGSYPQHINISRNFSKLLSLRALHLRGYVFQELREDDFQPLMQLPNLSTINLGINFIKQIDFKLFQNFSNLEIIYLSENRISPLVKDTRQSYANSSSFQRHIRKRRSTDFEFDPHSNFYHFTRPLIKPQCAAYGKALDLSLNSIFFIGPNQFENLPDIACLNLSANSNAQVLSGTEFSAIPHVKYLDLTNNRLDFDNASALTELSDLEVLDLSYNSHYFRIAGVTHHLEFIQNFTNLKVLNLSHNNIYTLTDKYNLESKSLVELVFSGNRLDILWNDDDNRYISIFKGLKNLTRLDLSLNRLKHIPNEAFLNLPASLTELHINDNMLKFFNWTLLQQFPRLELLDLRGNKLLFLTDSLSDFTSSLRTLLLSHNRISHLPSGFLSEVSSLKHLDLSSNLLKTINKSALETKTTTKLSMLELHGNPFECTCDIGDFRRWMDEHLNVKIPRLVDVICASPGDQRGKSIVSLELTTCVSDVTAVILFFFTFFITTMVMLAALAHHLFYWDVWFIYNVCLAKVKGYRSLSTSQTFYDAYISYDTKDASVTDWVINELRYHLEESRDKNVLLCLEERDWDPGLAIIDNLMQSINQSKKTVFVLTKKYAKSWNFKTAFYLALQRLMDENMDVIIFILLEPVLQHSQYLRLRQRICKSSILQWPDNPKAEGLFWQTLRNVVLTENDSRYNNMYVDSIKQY
The experiment is described as follows: TLR8 inhibition reporter assay (HEK-Blue cells, SEAP reporter, R848 stimulation). The following applies: HEK-Blue cells overexpressing human TLR8, SEAP reporter, R848 15.9 μM; read-out: TLR8 IC50. In outline: as §1

The target of experiment [3] is T3, human TLR9 (Homo sapiens, UniProt Q9NR96).
T3 construct: host or cells: HEK-Blue cells
T3 sequence (Q9NR96 26-1032): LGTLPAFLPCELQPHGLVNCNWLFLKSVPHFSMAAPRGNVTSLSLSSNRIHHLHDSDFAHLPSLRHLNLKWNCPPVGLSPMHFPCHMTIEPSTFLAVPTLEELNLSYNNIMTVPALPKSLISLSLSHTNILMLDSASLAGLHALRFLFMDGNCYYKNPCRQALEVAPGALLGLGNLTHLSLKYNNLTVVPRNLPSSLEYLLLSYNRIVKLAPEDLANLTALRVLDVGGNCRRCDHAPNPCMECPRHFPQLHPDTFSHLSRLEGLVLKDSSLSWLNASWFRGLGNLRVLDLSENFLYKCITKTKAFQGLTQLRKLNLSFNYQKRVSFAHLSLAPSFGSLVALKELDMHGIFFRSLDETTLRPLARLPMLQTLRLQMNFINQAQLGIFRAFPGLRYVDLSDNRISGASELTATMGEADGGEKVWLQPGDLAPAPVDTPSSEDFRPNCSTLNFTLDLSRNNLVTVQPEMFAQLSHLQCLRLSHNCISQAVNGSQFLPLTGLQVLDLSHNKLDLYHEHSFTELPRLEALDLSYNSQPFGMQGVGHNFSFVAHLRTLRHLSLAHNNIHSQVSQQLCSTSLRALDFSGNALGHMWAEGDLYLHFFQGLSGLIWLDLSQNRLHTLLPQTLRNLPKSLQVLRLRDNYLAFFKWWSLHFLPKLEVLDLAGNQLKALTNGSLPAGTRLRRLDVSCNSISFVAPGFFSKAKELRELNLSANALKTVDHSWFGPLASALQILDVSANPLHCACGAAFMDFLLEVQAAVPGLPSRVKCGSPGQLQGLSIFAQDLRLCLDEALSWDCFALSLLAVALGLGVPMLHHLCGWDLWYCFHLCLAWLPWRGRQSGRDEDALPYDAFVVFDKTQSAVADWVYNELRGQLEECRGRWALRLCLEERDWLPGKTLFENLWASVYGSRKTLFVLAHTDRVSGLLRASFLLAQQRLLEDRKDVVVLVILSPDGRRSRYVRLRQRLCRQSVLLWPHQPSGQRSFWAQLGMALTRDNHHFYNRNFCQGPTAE
In words: TLR9 inhibition reporter assay (HEK-Blue cells, SEAP reporter, ODN2006 stimulation). The following applies: HEK-Blue cells overexpressing human TLR9, SEAP reporter, ODN2006 5 nM. An outline of the steps: as §1

As for `CC(C)c1c(-c2cn(C)c3ncccc23)[nH]c2sc(C3CCNCC3)nc12` [Example 3, 6-isopropyl-5-(1-methyl-1H-pyrrolo[2,3-b]pyridin-3-yl)-2-(piperidin-4-yl)-4H-pyrrolo[3,2-d]thiazole], the IC50 in experiment [1] worked out at 1.84 nM; in experiment [2], 3.05 nM; in experiment [3], 18500 nM.

Turning to `Cc1cc(-c2[nH]c3sc(C4CCNCC4)nc3c2C(C)C)cc(C)n1` [Example 4, 5-(2,6-dimethylpyridin-4-yl)-6-isopropyl-2-(piperidin-4-yl)-4H-pyrrolo[3,2-d]thiazole], the IC50 in experiment [1] turned out to be 5.52 nM; in experiment [2], 33.9 nM; in experiment [3], 287 nM.

As for `COc1cc(-c2[nH]c3sc(C4CCN(C(=O)CN(C)C)CC4)nc3c2C(C)C)cn2ncnc12` [Example 6, 2-(dimethylamino)-1-(4-(6-isopropyl-5-(8-methoxy-[1,2,4]triazolo[1,5-a]pyridin-6-yl)-4H-pyrrolo[3,2-d]thiazol-2-yl)piperidin-1-yl)ethan-1-one], the figures for the IC50 in experiment [1], in experiment [2] and in experiment [3] were 2.05 nM, 20.9 nM and 1100 nM, respectively.

Regarding `COc1cc(-c2[nH]c3sc(C4CCN(CC(=O)N(C)C)CC4)nc3c2C(C)C)cn2ncnc12` [Example 7, 2-(4-(6-isopropyl-5-(8-methoxy-[1,2,4]triazolo[1,5-a]pyridin-6-yl)-4H-pyrrolo[3,2-d]thiazol-2-yl)piperidin-1-yl)-N,N-dimethylacetamide], the IC50 was 7.8 nM in experiment [1], 6.59 nM in experiment [2] and 5470 nM in experiment [3].

Consider `CNC(=O)CN1CCC(c2nc3c(C(C)C)c(-c4cc(OC)c5ncnn5c4)[nH]c3s2)CC1` [Example 8, 2-(4-(6-isopropyl-5-(8-methoxy-[1,2,4]triazolo[1,5-a]pyridin-6-yl)-4H-pyrrolo[3,2-d]thiazol-2-yl)piperidin-1-yl)-N-methylacetamide], for which the results for the IC50 in experiment [1], in experiment [2] and in experiment [3] were 2.47 nM, 5.42 nM and 30900 nM, respectively.

On to `COc1cc(-c2[nH]c3sc(C4CCN(C(C)C)CC4)nc3c2C(C)C)cn2ncnc12` [Example 10, 6-isopropyl-2-(1-isopropylpiperidin-4-yl)-5-(8-methoxy-[1,2,4]triazolo[1,5-a]pyridin-6-yl)-4H-pyrrolo[3,2-d]thiazole], for which the IC50 in experiment [1] is 1.37 nM; in experiment [2] it was 1.9 nM; in experiment [3], 1330 nM.

In the case of `COc1cc(-c2[nH]c3sc(C4CCN(C5COC5)CC4)nc3c2C(C)C)cn2ncnc12` [Example 11, 6-isopropyl-5-(8-methoxy-[1,2,4]triazolo[1,5-a]pyridin-6-yl)-2-(1-(oxetan-3-yl)piperidin-4-yl)-4H-pyrrolo[3,2-d]thiazole], the IC50 amounted to 3.78 nM in experiment [1], 9.31 nM in experiment [2] and 18500 nM in experiment [3].

For the compound `COc1cc(-c2[nH]c3sc(C4CCN(C5CCOCC5)CC4)nc3c2C(C)C)cn2ncnc12` [Example 12, 6-isopropyl-5-(8-methoxy-[1,2,4]triazolo[1,5-a]pyridin-6-yl)-2-(1-(tetrahydro-2H-pyran-4-yl)piperidin-4-yl)-4H-pyrrolo[3,2-d]thiazole], the figures for the concentration for half-maximal inhibition (IC50) in experiment [1], in experiment [2] and in experiment [3] were 1.59 nM, 0.86 nM and 2150 nM, respectively.

For `COc1cc(-c2[nH]c3sc(C4CCN(CC(C)(C)C)CC4)nc3c2C(C)C)cn2ncnc12` [Example 13, 6-isopropyl-5-(8-methoxy-[1,2,4]triazolo[1,5-a]pyridin-6-yl)-2-(1-neopentylpiperidin-4-yl)-4H-pyrrolo[3,2-d]thiazole], the IC50 stood at 5.04 nM in experiment [1], 2.03 nM in experiment [2] and 3330 nM in experiment [3].

As for `COc1cc(-c2[nH]c3sc(C4CCN(CC5(C)COC5)CC4)nc3c2C(C)C)cn2ncnc12` [Example 14, 6-isopropyl-5-(8-methoxy-[1,2,4]triazolo[1,5-a]pyridin-6-yl)-2-(1-((3-methyloxetan-3-yl)methyl)piperidin-4-yl)-4H-pyrrolo[3,2-d]thiazole], the half-maximal inhibitory concentration (IC50) was found to be 1.92 nM in experiment [1], 0.94 nM in experiment [2] and 3840 nM in experiment [3].

Regarding `COc1cc(-c2[nH]c3sc(C4CCN(CC(C)(C)O)CC4)nc3c2C(C)C)cn2ncnc12` [Example 15, 1-(4-(6-isopropyl-5-(8-methoxy-[1,2,4]triazolo[1,5-a]pyridin-6-yl)-4H-pyrrolo[3,2-d]thiazol-2-yl)piperidin-1-yl)-2-methylpropan-2-ol], the IC50 came to 4.15 nM in experiment [1], 3.14 nM in experiment [2] and 7810 nM in experiment [3].

For `COc1cc(-c2[nH]c3sc(C4CCN(CCS(C)(=O)=O)CC4)nc3c2C(C)C)cn2ncnc12` [Example 16, 6-isopropyl-5-(8-methoxy-[1,2,4]triazolo[1,5-a]pyridin-6-yl)-2-(1-(2-(methylsulfonyl)ethyl)piperidin-4-yl)-4H-pyrrolo[3,2-d]thiazole], the results for the IC50 in experiment [1], in experiment [2] and in experiment [3] were 3.09 nM, 2.74 nM and 43500 nM, respectively.
